Test results published in patent publication US20240391882A1 (Mirati Therapeutics, Inc., priority 2023, published 2024).

Experiments:
Assay type in all cases: cell-based
[1] = system: pAKT in T47D (PI3Kα H1047R mutant) cells; test: Inhibition of pAKT (alphaLISA Surefire Ultra AKT 1/2/3 pS473) in T47D cells; settings: Homo sapiens; T47D (PI3Kα H1047R mutant) cells, 24 hr compound incubation, alphaLISA pS473; read-out: T47D (H1047R) pAKT 24 hr (IC50)
Summary of the method: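 Cells in HBSS were dosed from 10.4 μm (1:4 serial dilution, 10 concentrations) and incubated about 24 hours at 37° C, then lysed. pAKT S473 measured by alphaLISA after overnight bead incubation. Signal normalised to alpelisib (3.125 μm) and DMSO controls; IC50 from four-parameter fit.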

[2] = system: T47D (PI3Kα H1047R mutant) cells; test: Cell viability (CellTiter-Glo 2.0) in T47D cells; settings: Homo sapiens, T47D, 72 h, approximately 72 hours
Summary of the method: (§1)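 SKBR3 or T47D cells, 1000 per well, were seeded overnight and then exposed ~72 h at 37° C to 10 concentrations of compound, 1:4 dilutions from 10 μm. Viability read by CellTiter-Glo luminescence as percent of vehicle; IC50 from four-parameter variable-slope fit.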

[3] = system: SKBR3 (PI3Kα wild type) cells; test: Cell viability (CellTiter-Glo 2.0) in SKBR3 cells; settings: Homo sapiens, SK-BR-3; SKBR3 (PI3Kα wild type) cells, approximately 72 hours, CellTiter-Glo 2.0; read-out: SKBR3 (WT) Viability IC50
Summary of the method: as §1

| Compound | IC50 [1] [nM] | IC50 [2] [nM] | IC50 [3] [µM] |
| --- | --- | --- | --- |
| Cc1cc([C@@H](C)Nc2ccc(Cl)nc2C(=O)O)c2nc(N3CCCC(C(F)(F)F)C3)c(C#N)nc2c1 (stereo partly drawn) [Example 45, 6-chloro-3-(((1R)-1-(2-cyano-7-methyl-3-(3-(trifluoromethyl)piperidin-1-yl)quinoxalin-5-yl)ethyl)amino)picolinic acid] | 6.8 | 115 | > 10 |
| Cc1cc([C@@H](C)Nc2ccc(Cl)nc2C(=O)O)c2nc(N3CC4CS(=O)(=O)CC4C3)c(C#N)nc2c1 (stereo partly drawn) [Example 228, 6-chloro-3-(((1R)-1-(2-cyano-3-(2,2-dioxidotetrahydro-1H-thieno[3,4-c]pyrrol-5(3H)-yl)-7-methylquinoxalin-5-yl)ethyl)amino)picolinic acid] | 33.2 | 368 | > 10 |
| Cc1cc([C@@H](C)Nc2ccc(Cl)nc2C(=O)O)c2nc(N3CC4C[C@@]4(C(F)(F)F)C3)c(C#N)nc2c1 (single isomer, unassigned) [Example 43A] | 4.8 | 99 | > 10 |
| Cc1cc([C@@H](C)Nc2ccc(Cl)nc2C(=O)O)c2nc(N3CCC4(CC3)COC4)c(C#N)nc2c1 [Example 249, (R)-6-chloro-3-((1-(2-cyano-7-methyl-3-(2-oxa-7-azaspiro[3.5]nonan-7-yl)quinoxalin-5-yl)ethyl)amino)picolinic acid] | 1.7 | 16 | 6.65 |
| Cc1cc([C@@H](C)Nc2ccc(Cl)nc2C(=O)O)c2nc(N3CCc4ccc(C#N)cc4C3)c(C#N)nc2c1 [Example 217, (R)-6-chloro-3-((1-(2-cyano-3-(7-cyano-3,4-dihydroisoquinolin-2(1H)-yl)-7-methylquinoxalin-5-yl)ethyl)amino)picolinic acid] | 0.69 | 64 | > 10 |
| C[C@@H](Nc1ccccc1C(=O)O)c1cc(C#N)cc2nc(C#N)c(N3CCC(F)(F)CC3)nc12 [Example 28, (R)-2-((1-(2,7-dicyano-3-(4,4-difluoropiperidin-1-yl)quinoxalin-5-yl)ethyl)amino)benzoic acid] | 48.3 | 2140 | > 10 |
| Cc1cc([C@@H](C)Nc2ccc(Cl)nc2C(=O)O)c2nc(N3CCC4(CC3)C(F)(F)C4(F)F)c(C#N)nc2c1 [Example 82, (R)-6-chloro-3-((1-(2-cyano-7-methyl-3-(1,1,2,2-tetrafluoro-6-azaspiro[2.5]octan-6-yl)quinoxalin-5-yl)ethyl)amino)picolinic acid] | 4.5 | 121 | 5.03 |
| Cc1cc([C@@H](C)Nc2ccccc2C(=O)O)c2nc(N3CCCC3)c(C#N)nc2c1 [Example 68, (R)-2-((1-(2-cyano-7-methyl-3-(pyrrolidin-1-yl)quinoxalin-5-yl)ethyl)amino)benzoic acid] | 24.4 | 391 | > 10 |
| Cc1cc([C@@H](C)Nc2cccnc2C(=O)O)c2nc(N3CCC(F)(F)C3)c(C#N)nc2c1 [Example 204, (R)-3-((1-(2-cyano-3-(3,3-difluoropyrrolidin-1-yl)-7-methylquinoxalin-5-yl)ethyl)amino)picolinic acid] | 58.1 | 393 | 1.85 |

The remaining lines, values ahead:

| IC50 [1] [nM] | IC50 [2] [nM] | IC50 [3] [µM] | Compound |
| --- | --- | --- | --- |
| 0.8 | 121 | > 10 | Cc1cc([C@@H](C)Nc2ccc(Cl)nc2C(=O)O)c2nc(N3C[C@@H](CO)C(F)(F)C3)c(C#N)nc2c1 (single isomer, unassigned) [Example 210B] |
| 0.97 | 46 | 3.4 | Cc1cc([C@@H](C)Nc2ccc(Cl)nc2C(=O)O)c2nc(N3C[C@H](F)C[C@H]3C)c(C#N)nc2c1 [Example 246C, 6-chloro-3-(((R)-1-(2-cyano-3-((2R,4R)-4-fluoro-2-methylpyrrolidin-1-yl)-7-methylquinoxalin-5-yl)ethyl)amino)picolinic acid] |
| 4.8 | 139 | 3.74 | Cc1cc([C@@H](C)Nc2ccc(Cl)nc2C(=O)O)c2nc(N3CC4(CC[C@@H]4F)C3)c(C#N)nc2c1 (single isomer, unassigned) [Example 257A] |
